In brackets after ≈: the same amount, converted by molar mass.
Legend:
Format in all cases: cell-based
A. niger = test: In vitro antibacterial (antifungal) test, two-fold dilution MIC; details: Aspergillus niger, RPMI 1640, culture 2-7 days
C. Krusei = test: as above; details: Pichia kudriavzevii, RPMI 1640, culture 2-7 days
C. albicans = test: as above; details: Candida albicans, read-out: MIC C. albicas
C. glabrata = test: as above; details: Nakaseomyces glabratus, RPMI 1640, culture 2-7 days
C. neoformans = test: as above; details: Cryptococcus neoformans, RPMI 1640, culture 2-7 days
C. parapsilosis = test: as above; details: Lodderomyces parapsilosis, RPMI 1640, culture 2-7 days
C. tropicalis = test: as above; details: Candida tropicalis, RPMI 1640, culture 2-7 days
E. floccosum = test: as above; details: Epidermophyton floccosum, RPMI 1640, culture 2-7 days
M. gypseum = test: as above; details: Nannizzia gypsea, RPMI 1640, culture 2-7 days
S. schenekn = test: as above; details: RPMI 1640, culture 2-7 days
[1] = tested on: Fusarium oxysporum vasinfectum; test: as above; details: RPMI 1640, culture 2-7 days
Setosphaeria turcica = test: as above; details: Exserohilum turcicum, RPMI 1640, culture 2-7 days
Terchoderma = test: as above; details: Trichoderma, RPMI 1640, culture 2-7 days
gibberella = test: as above; details: RPMI 1640, culture 2-7 days
A375 = test: In vitro anticancer MTT experiment; details: Homo sapiens, A-375, concentration 5 ug/ml, 48 h or 72 h, read-out: inhibition ratio A375
Outline: (§1)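 Inhibition ratios were measured at a compound concentration of 5 ug/ml. Log-phase cells grown in RPMI 1640/10% fetal calf serum were treated for 48 h or 72 h, and viability was assessed by MTT reduction with absorbance read at 570 nm.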

AS24391 = test: In vitro anticancer MTT experiment; details: concentration 5 ug/ml, 48 h or 72 h, read-out: inhibition ratio AS24391
Outline: as §1

B01092 = test: In vitro anticancer MTT experiment; details: concentration 5 ug/ml, 48 h or 72 h, read-out: inhibition ratio B01092
Outline: as §1

CRL-1435PC-3 = test: In vitro anticancer MTT experiment; details: concentration 5 ug/ml, 48 h or 72 h, read-out: inhibition ratio CRL-1435PC-3
Outline: as §1

CRL-1469PANC-1 = test: In vitro anticancer MTT experiment; details: concentration 5 ug/ml, 48 h or 72 h, read-out: inhibition ratio CRL-1469PANC-1
Outline: as §1

CRL-2233SNU-398 = test: In vitro anticancer MTT experiment; details: concentration 5 ug/ml, 48 h or 72 h, read-out: inhibition ratio CRL-2233SNU-398
Outline: as §1

FTC 133 = test: In vitro anticancer MTT experiment; details: Homo sapiens, concentration 5 ug/ml, 48 h or 72 h, read-out: inhibition ratio FTC 133
Outline: as §1

HTB-131MDA-MB-453 = test: In vitro anticancer MTT experiment; details: concentration 5 ug/ml, 48 h or 72 h, read-out: inhibition ratio HTB-131MDA-MB-453
Outline: as §1

HTB-38HT-29 = test: In vitro anticancer MTT experiment; details: concentration 5 ug/ml, 48 h or 72 h, read-out: inhibition ratio HTB-38HT-29
Outline: as §1

HTB-94 = test: In vitro anticancer MTT experiment; details: concentration 5 ug/ml, 48 h or 72 h, read-out: inhibition ratio HTB-94
Outline: as §1

HTB-95637 = test: In vitro anticancer MTT experiment; details: concentration 5 ug/ml, 48 h or 72 h, read-out: inhibition ratio HTB-95637
Outline: as §1

L1210 = test: In vitro anticancer MTT experiment; details: Mus musculus, concentration 5 ug/ml, 48 h or 72 h, read-out: inhibition ratio L1210
Outline: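 Growth inhibition at 5 ug/ml determined by MTT assay after 48 h or 72 h compound exposure at 37° C.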

SGC7901 = test: In vitro anticancer MTT experiment; details: Homo sapiens, SGC-7901, concentration 5 ug/ml, 48 h or 72 h, read-out: inhibition ratio SGC7901
Outline: as §1

L428 = test: In vitro anticancer MTT experiment; details: Homo sapiens, L-428, concentration 5 ug/ml, 48 h or 72 h, read-out: inhibition ratio L428
Outline: as §1

Compound	MIC (C. Krusei)	MIC (C. albicans)	MIC (C. glabrata)	MIC (C. neoformans)	MIC (C. parapsilosis)	MIC (C. tropicalis)	MIC (E. floccosum)	MIC (M. gypseum)	MIC (S. schenekn)	MIC (Setosphaeria turcica)	MIC (gibberella)	inhibition at 5 µg/mL (A375)	inhibition at 5 µg/mL (AS24391)	inhibition at 5 µg/mL (B01092)	inhibition at 5 µg/mL (CRL-1469PANC-1)	inhibition at 5 µg/mL (HTB-131MDA-MB-453)	inhibition at 5 µg/mL (HTB-38HT-29)	inhibition at 5 µg/mL (HTB-95637)	inhibition at 5 µg/mL (L1210)	inhibition at 5 µg/mL (SGC7901)	further results
Cc1ccc2c(c1)C(=O)CCS2 [Compound 1]	32 µg/mL (≈ 180 µM)	64 µg/mL (≈ 359 µM)	64 µg/mL (≈ 359 µM)	64 µg/mL (≈ 359 µM)	64 µg/mL (≈ 359 µM)	32 µg/mL (≈ 180 µM)	32 µg/mL (≈ 180 µM)	64 µg/mL (≈ 359 µM)	32 µg/mL (≈ 180 µM)												MIC (A. niger): 32 µg/mL (≈ 180 µM)
Cc1ccc2c(c1)C(=O)/C(=C\O)CS2 [Compound 2]	32 µg/mL (≈ 155 µM)	32 µg/mL (≈ 155 µM)	32 µg/mL (≈ 155 µM)	32 µg/mL (≈ 155 µM)	64 µg/mL (≈ 310 µM)	32 µg/mL (≈ 155 µM)	32 µg/mL (≈ 155 µM)	32 µg/mL (≈ 155 µM)	16 µg/mL (≈ 77.6 µM)												MIC (A. niger): 64 µg/mL (≈ 310 µM)
Cc1cc2c(cc1F)SC/C(=C\Cl)C2=O [Compound 6, (Z)-3-(chloromethylene)-7-fluoro-6-methylthiochroman-4-one]	8 µg/mL (≈ 33 µM)	32 µg/mL (≈ 132 µM)	8 µg/mL (≈ 33 µM)	4 µg/mL (≈ 16.5 µM)	4 µg/mL (≈ 16.5 µM)	16 µg/mL (≈ 65.9 µM)	32 µg/mL (≈ 132 µM)	4 µg/mL (≈ 16.5 µM)	16 µg/mL (≈ 65.9 µM)	4 µg/mL (≈ 16.5 µM)	8 µg/mL (≈ 33 µM)	65.8%	59.8%	57.9%	53.8%	60.7%	44.2%	48%	76.9%	45.3%	MIC [1]: 16 µg/mL (≈ 65.9 µM); MIC (Terchoderma): 16 µg/mL (≈ 65.9 µM); inhibition at 5 µg/mL (CRL-1435PC-3): 56.7%; inhibition at 5 µg/mL (CRL-2233SNU-398): 60.1%; inhibition at 5 µg/mL (FTC 133): 59.3%; inhibition at 5 µg/mL (HTB-94): 45.4%
O=C1/C(=C/Br)CSc2ccc(Cl)cc21 [Compound 10, (Z)-3-(bromomethylene)-6-chlorothiochroman-4-one]	16 µg/mL (≈ 55.3 µM)	64 µg/mL (≈ 221 µM)	64 µg/mL (≈ 221 µM)	4 µg/mL (≈ 13.8 µM)	8 µg/mL (≈ 27.6 µM)	32 µg/mL (≈ 111 µM)	64 µg/mL (≈ 221 µM)	64 µg/mL (≈ 221 µM)	64 µg/mL (≈ 221 µM)	32 µg/mL (≈ 111 µM)	32 µg/mL (≈ 111 µM)		56.7%	69%	45.1%	53.5%	54.7%	40.8%	84.4%	56.5%	MIC [1]: 64 µg/mL (≈ 221 µM); MIC (Terchoderma): 16 µg/mL (≈ 55.3 µM); inhibition at 5 µg/mL (CRL-1435PC-3): 46.6%; inhibition at 5 µg/mL (CRL-2233SNU-398): 45.6%; inhibition at 5 µg/mL (FTC 133): 45.6%; inhibition at 5 µg/mL (HTB-94): 46.8%; inhibition at 5 µg/mL (L428): 50.6%
O=C1/C(=C/Br)CSc2ccc(F)cc21 [Compound 11, (Z)-3-(bromomethylene)-6-fluorothiochroman-4-one]	16 µg/mL (≈ 58.6 µM)	64 µg/mL (≈ 234 µM)	8 µg/mL (≈ 29.3 µM)	32 µg/mL (≈ 117 µM)	32 µg/mL (≈ 117 µM)	64 µg/mL (≈ 234 µM)	32 µg/mL (≈ 117 µM)	64 µg/mL (≈ 234 µM)	32 µg/mL (≈ 117 µM)	32 µg/mL (≈ 117 µM)	16 µg/mL (≈ 58.6 µM)	47%	46.9%	45.5%	39.4%	45.6%	45.5%	49.5%	86%	59%	MIC [1]: 32 µg/mL (≈ 117 µM); MIC (Terchoderma): 16 µg/mL (≈ 58.6 µM); inhibition at 5 µg/mL (CRL-1435PC-3): 47.9%; inhibition at 5 µg/mL (CRL-2233SNU-398): 60.1%; inhibition at 5 µg/mL (FTC 133): 56.7%; inhibition at 5 µg/mL (HTB-94): 36.7%; inhibition at 5 µg/mL (L428): 50.3%
Cc1ccc2c(c1)C(=O)CSC2 [Compound 13]		64 µg/mL (≈ 359 µM)	64 µg/mL (≈ 359 µM)	64 µg/mL (≈ 359 µM)	32 µg/mL (≈ 180 µM)	16 µg/mL (≈ 89.8 µM)	32 µg/mL (≈ 180 µM)	16 µg/mL (≈ 89.8 µM)	64 µg/mL (≈ 359 µM)			74.3%	45.1%	43.8%	62.7%	65.5%	57.3%	56.6%	85.6%	50.6%	MIC (A. niger): 32 µg/mL (≈ 180 µM); inhibition at 5 µg/mL (FTC 133): 57.8%; inhibition at 5 µg/mL (HTB-94): 45.6%; inhibition at 5 µg/mL (L428): 37.5%
OC1/C(=C/Cl)SCc2ccccc21 (centres unmarked) [Compound 20, (Z)-3-(chloromethylene)isothiochroman-4-ol]	32 µg/mL (≈ 150 µM)	16 µg/mL (≈ 75.2 µM)	8 µg/mL (≈ 37.6 µM)	16 µg/mL (≈ 75.2 µM)	8 µg/mL (≈ 37.6 µM)	32 µg/mL (≈ 150 µM)	16 µg/mL (≈ 75.2 µM)	16 µg/mL (≈ 75.2 µM)	32 µg/mL (≈ 150 µM)	8 µg/mL (≈ 37.6 µM)	16 µg/mL (≈ 75.2 µM)	50.2%	49.8%	46.9%	34.5%	25.8%	45.5%	56.2%	80.3%	45.9%	inhibition at 5 µg/mL (CRL-1435PC-3): 45.5%; inhibition at 5 µg/mL (CRL-2233SNU-398): 40.4%; inhibition at 5 µg/mL (FTC 133): 36.9%; inhibition at 5 µg/mL (HTB-94): 45.7%; inhibition at 5 µg/mL (L428): 43.3%
O=C1/C(=C\Cl)CSc2ccc(Cl)cc21 [Compound 21, (E)-6-chloro-3-(chloromethylene)thiochroman-4-one]	8 µg/mL (≈ 32.6 µM)	8 µg/mL (≈ 32.6 µM)	8 µg/mL (≈ 32.6 µM)	4 µg/mL (≈ 16.3 µM)	8 µg/mL (≈ 32.6 µM)	16 µg/mL (≈ 65.3 µM)	16 µg/mL (≈ 65.3 µM)	32 µg/mL (≈ 131 µM)	16 µg/mL (≈ 65.3 µM)	32 µg/mL (≈ 131 µM)	8 µg/mL (≈ 32.6 µM)	56.9%	60.3%	35.9%	63%	55.6%	54.3%	54.3%	78.4%	50%	MIC [1]: 32 µg/mL (≈ 131 µM); MIC (Terchoderma): 4 µg/mL (≈ 16.3 µM); inhibition at 5 µg/mL (CRL-1435PC-3): 54.6%; inhibition at 5 µg/mL (CRL-2233SNU-398): 46.7%; inhibition at 5 µg/mL (FTC 133): 55.9%; inhibition at 5 µg/mL (L428): 52.3%
O=C1/C(=C\Cl)CSc2ccc(F)cc21 [Compound 22, (E)-3-(chloromethylene)-6-fluorothiochroman-4-one]	16 µg/mL (≈ 70 µM)	4 µg/mL (≈ 17.5 µM)	8 µg/mL (≈ 35 µM)	16 µg/mL (≈ 70 µM)	16 µg/mL (≈ 70 µM)	32 µg/mL (≈ 140 µM)	16 µg/mL (≈ 70 µM)	16 µg/mL (≈ 70 µM)	8 µg/mL (≈ 35 µM)	8 µg/mL (≈ 35 µM)	4 µg/mL (≈ 17.5 µM)	56.7%	43.5%	43.6%	33.3%	55.9%	47.8%	36.9%	86.7%	60.7%	MIC [1]: 16 µg/mL (≈ 70 µM); MIC (Terchoderma): 32 µg/mL (≈ 140 µM); inhibition at 5 µg/mL (CRL-1435PC-3): 30.5%; inhibition at 5 µg/mL (CRL-2233SNU-398): 49%; inhibition at 5 µg/mL (HTB-94): 51%; inhibition at 5 µg/mL (L428): 53.9%

— patent US20120035206A1, “PREPARATION AND APPLICATION OF NOVEL ANTIBACTERIAL AND ANTICANCER COMPOUNDS AND THEIR DERIVATIVES” (priority 2009, published 2012)
